{"source": "paper PMC9489553", "about": "“Biochemical and clinical studies of putative allergens to assess what distinguishes them from other non-allergenic proteins in the same family” (Transgenic Research, 2022)", "target": "T1, ChMDH (Cladosporium herbarum, UniProt P0C0Y5)", "T1 construct": "full length, codon-optimised synthetic gene, pET-28a, E. coli BL21(DE3), N-terminal His-tag cleaved, tetramer", "T1 sequence (P0C0Y5 whole entry)": "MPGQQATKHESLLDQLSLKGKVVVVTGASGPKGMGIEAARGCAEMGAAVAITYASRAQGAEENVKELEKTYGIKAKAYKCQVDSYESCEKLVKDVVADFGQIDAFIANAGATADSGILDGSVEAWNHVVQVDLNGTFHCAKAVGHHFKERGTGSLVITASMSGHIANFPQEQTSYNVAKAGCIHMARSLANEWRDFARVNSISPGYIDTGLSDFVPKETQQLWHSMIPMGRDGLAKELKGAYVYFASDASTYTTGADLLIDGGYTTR", "experiment": "X-ray crystal structure, […] Å", "type": "binding", "conditions": "co-crystallised with 5 mM NADP+, pH 7.0, 4 °C; active site"}
{"compound": "NC(=O)c1ccc[n+]([C@@H]2O[C@H](COP(=O)(O)OP(=O)(O)OC[C@H]3O[C@@H](n4cnc5c(N)ncnc54)[C@H](OP(=O)(O)O)[C@@H]3O)[C@@H](O)[C@H]2O)c1", "note": "[NADP^+]", "values": [{"measurement": "X-ray crystal structure, 2.04 Å", "value": "ChMDH (the third orphan allergen selected for study) in complex with NADP^+ was determined"}]}
